Test results as given in US8415375B2, “2-hydroxyethyl-1H-quinolin-2-one derivatives and their azaisosteric analogues with antibacterial activity” (Actelion Pharmaceuticals Ltd., priority 2009, dated 2013).
Converted amounts (≈) assume the structure as drawn.

Tests used:
Assay type in all cases: cell-based
[1] = molecular target: T1, hERG K+ channel (Homo sapiens, UniProt Q12809); assay: In vitro blocking of hERG K+ channels (QPatch automated patch-clamp, CHO-K1 cells); details: pH 7.4, at 10 μM, recombinant hERG in CHO-K1 cells, average block on two cells
T1 construct: host or cells: CHO-K1 (CHOhERG)
Experimental: hERG K^+ channels have been cloned from human heart and recombinant channels are stably expressed in CHO-K1 cells (CHOhERG). These cells have been purchased from bSys GmbH(CH-4052 Basel, Switzerland) and are grown in 150 mL culture flasks at 37° C. in 5% CO2. When the cells are ˜100% confluent, they are detached with 0.25% trypsin-EDTA solution and placed in the cell preparation unit of a QPatch automated patch-clamp robot (Sophion Bioscience A/S, 2750 Ballerup, Denmark).
Currents through the hERG K^+ channels (IKhERG) are elicited using the following buffer solutions and voltage protocol: • extracellular solution (in mM): [NaCl]=150; [KCl]=4; [CaCl2]=1.2; [MgCl2]=1; [HEPES]=10; pH adjusted to 7.4 with NaOH; • intracellular solution (in mM): [KCl]=140; [NaCl]=10; [MgCl2]=1; [HEPES]=10; [EGTA]=5; [Mg-ATP]=5; [Na3-GTP]=0.1; pH adjusted to 7.2 with KOH; • voltage protocol: the resting potential is −80 mV and the frequency of stimulation is 0.1 Hz. hERG K^+ currents are measured as the average current during the last 20 ms of the 500 ms pulse to −40 mV minus the average current during the last 20 ms of the 50 ms pulse to −40 mV.
After the cells have stabilized for a few minutes and the currents are steady, the amplitude of IKhERG is recorded under control conditions. Thereafter, the QPatch robot applies the test compound to the cell at the test concentration and, after 4 minutes of stimulation, the amplitude of IKhERG is recorded under test conditions. The ratio of the two amplitudes is used to define a fractional block and the average block on two cells is used to provide the effect of a given concentration (e.g. 10 μM). If, for a given test compound, a sufficient number of concentrations were tested, an apparent IC50 for inhibition of IKhERG is calculated.

[2] = test system: S. aureus 29213; assay: Bacterial growth minimal inhibitory concentration (microdilution, cation-adjusted Mueller-Hinton Broth); details: Staphylococcus aureus
Experimental: Minimal inhibitory concentrations (MICs; mg/l) were determined in cation-adjusted Mueller-Hinton Broth by a microdilution method following the description given in “Methods for Dilution Antimicrobial Susceptibility Tests for Bacteria that Grow Aerobically”, Approved standard, 7th ed., Clinical and Laboratory Standards Institute (CLSI) Document M7-A7, Wayne, Pa., USA, 2006. All Example compounds were tested against several Gram positive and Gram negative bacteria. Typical antibacterial test results are given in Table 1 hereafter (MIC in mg/l).

[3] = test system: S. aureus A798; assay: Bacterial growth minimal inhibitory concentration (microdilution), S. aureus A798; details: Staphylococcus aureus
Experimental: Minimal inhibitory concentrations (MICs; mg/l) were determined in cation-adjusted Mueller-Hinton Broth by a microdilution method following the description given in “Methods for Dilution Antimicrobial Susceptibility Tests for Bacteria that Grow Aerobically”, Approved standard, 7th ed., Clinical and Laboratory Standards Institute (CLSI) Document M7-A7, Wayne, Pa., USA, 2006.
[drawing 16] using the experimentals methods described above for the MIC regarding S. aureus A798 bacteria and for in vitro blocking hERG K^+ channels gave the results summarised in the Table 2 hereafter.

T1 sequence (Q12809 whole entry): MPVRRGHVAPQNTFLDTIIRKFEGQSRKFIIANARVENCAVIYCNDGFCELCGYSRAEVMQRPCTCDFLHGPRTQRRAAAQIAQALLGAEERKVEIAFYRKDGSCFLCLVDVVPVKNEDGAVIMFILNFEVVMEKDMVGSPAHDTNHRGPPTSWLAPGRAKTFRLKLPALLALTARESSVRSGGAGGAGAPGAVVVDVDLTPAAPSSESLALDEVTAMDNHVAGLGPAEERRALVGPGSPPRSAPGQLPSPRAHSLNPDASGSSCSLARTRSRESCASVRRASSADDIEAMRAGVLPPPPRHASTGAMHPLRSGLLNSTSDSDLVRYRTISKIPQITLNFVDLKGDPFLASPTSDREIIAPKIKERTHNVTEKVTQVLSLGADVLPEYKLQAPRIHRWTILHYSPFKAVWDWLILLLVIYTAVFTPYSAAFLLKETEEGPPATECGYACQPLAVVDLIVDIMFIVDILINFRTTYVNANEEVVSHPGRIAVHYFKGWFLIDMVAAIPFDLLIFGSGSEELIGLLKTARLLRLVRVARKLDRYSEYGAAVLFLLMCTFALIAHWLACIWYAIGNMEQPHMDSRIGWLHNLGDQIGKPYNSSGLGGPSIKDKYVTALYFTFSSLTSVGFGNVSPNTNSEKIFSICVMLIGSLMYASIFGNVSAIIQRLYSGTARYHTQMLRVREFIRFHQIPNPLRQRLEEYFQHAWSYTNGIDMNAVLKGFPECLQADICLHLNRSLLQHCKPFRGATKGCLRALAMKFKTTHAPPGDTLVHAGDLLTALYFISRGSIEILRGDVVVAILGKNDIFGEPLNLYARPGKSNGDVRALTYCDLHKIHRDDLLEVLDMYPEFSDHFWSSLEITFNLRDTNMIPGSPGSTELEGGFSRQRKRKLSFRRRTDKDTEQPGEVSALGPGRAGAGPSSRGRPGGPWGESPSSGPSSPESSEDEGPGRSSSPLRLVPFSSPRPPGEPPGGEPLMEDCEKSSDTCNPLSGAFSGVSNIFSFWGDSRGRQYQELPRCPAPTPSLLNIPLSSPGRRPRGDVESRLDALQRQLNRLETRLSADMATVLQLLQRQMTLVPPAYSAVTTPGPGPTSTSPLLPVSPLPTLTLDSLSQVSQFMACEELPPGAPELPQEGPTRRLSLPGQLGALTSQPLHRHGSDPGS

SMILES | inhibition at 4 min, 10 µM [1] [%] | MIC [2] [µg/mL] | MIC [3] [µg/mL]
COc1ccc2ccc(=O)n(C[C@H](O)[C@@H]3CC[C@@H](NCc4cc5c(cn4)OCCS5)CO3)c2n1 [Example 1, 1-((S)-2-{(2S,5R)-5-[(2,3-dihydro-4-oxa-1-thia-6-aza-naphthalen-7-ylmethyl)-amino]-tetrahydro-pyran-2-yl}-2-hydroxy-ethyl)-7-methoxy-1H-[1,8]naphthyridin-2-one] | 32 | ≤ 0.031 | 
COc1ccc2ccc(=O)n(C[C@H](O)[C@@H]3CC[C@@H](NCc4cc5c(cn4)OCCO5)CO3)c2n1 [Example 2, 1-((2S)-2-{(2S,5R)-5-[(2,3-dihydro-[1,4]dioxino[2,3-c]pyridin-7-ylmethyl)-amino]-tetrahydro-pyran-2-yl}-2-hydroxy-ethyl)-7-methoxy-1H-[1,8]naphthyridin-2-one] | 18 | ≤ 0.031 | ≤ 0.063
COc1ccc2ncc(=O)n(C[C@H](O)[C@@H]3CC[C@@H](NCc4cc5c(cn4)OCCO5)CO3)c2c1 [Example 3, 1-((2S)-2-{(2S,5R)-5-[(2,3-dihydro-[1,4]dioxino[2,3-c]pyridin-7-ylmethyl)-amino]tetrahydro-pyran-2-yl}-2-hydroxy-ethyl)-7-methoxy-1H-quinoxalin-2-one] | 18 | ≤ 0.031 | ≤ 0.063
COc1ccc2ncc(=O)n(C[C@H](O)[C@@H]3CC[C@@H](NCc4cc5c(cn4)OCCO5)CO3)c2n1 [Example 4, 4-((2S)-2-{(2S,5R)-5-[(2,3-dihydro-[1,4]dioxino[2,3-c]pyridin-7-ylmethyl)-amino]tetrahydro-pyran-2-yl}-2-hydroxy-ethyl)-6-methoxy-4H-pyrido[2,3-b]pyrazin-3-one] | 7 | ≤ 0.031 | ≤ 0.063
COc1ccc2ccc(=O)n(C[C@H](O)[C@@H]3CC[C@@H](NCc4cc5c(nn4)OCCO5)CO3)c2n1 [Example 5, 1-((2S)-2-{(2S,5R)-5-[(6,7-dihydro-[1,4]dioxino[2,3-c]pyridazin-3-ylmethyl)-amino]tetrahydro-pyran-2-yl}-2-hydroxy-ethyl)-7-methoxy-1H-[1,8]naphthyridin-2-one] | 28 | 0.063 (≈ 0.134 µM) | 
COc1ccc2ccc(=O)n(C[C@H](O)C3CCC(NCc4cc5c(cn4)OCCO5)CC3)c2n1 (stereo partly drawn) [Example 6, 1-((2R)-2-{4-[(2,3-dihydro-[1,4]dioxino[2,3-c]pyridin-7-ylmethyl)-amino]cyclohexyl}-2-hydroxy-ethyl)-7-methoxy-1H-[1,8]naphthyridin-2-one] | 35 | ≤ 0.031 | ≤ 0.063
COc1ccc2ncc(=O)n(C[C@H](O)C3CCC(NCc4cc5c(cn4)OCCO5)CC3)c2c1 (stereo partly drawn) [Example 7, 1-((2R)-2-{4-[(2,3-dihydro-[1,4]dioxino[2,3-c]pyridin-7-ylmethyl)-amino]-cyclohexyl}-2-hydroxy-ethyl)-7-methoxy-1H-quinoxalin-2-one] | 18 | ≤ 0.031 | 0.125 (≈ 0.268 µM)
COc1ccc2ccc(=O)n(C[C@H](O)[C@@H]3CC[C@@H](NCc4cc5c(nn4)OCCS5)CO3)c2n1 [Example 8, 1-((2S)-2-{(2S,5R)-5-[(6,7-dihydro-8-oxa-5-thia-1,2-diaza-naphthalen-3-ylmethyl)-amino]-tetrahydro-pyran-2-yl}-2-hydroxy-ethyl)-7-methoxy-1H-[1,8]naphthyridin-2-one] | 6 | 0.5 (≈ 1.03 µM) | 
COc1ccc2ccc(=O)n(C[C@H](O)[C@@H]3CC[C@@H](NCc4cc5c(cn4)OCS5)CO3)c2n1 [Example 9, 1-((2S)-2-hydroxy-2-{(2S,5R)-5-[(3-oxa-1-thia-5-aza-indan-6-ylmethyl)-amino]-tetrahydro-pyran-2-yl}-ethyl)-7-methoxy-1H-[1,8]naphthyridin-2-one] | 52 | ≤ 0.031 | 
COc1ccc2cc(F)c(=O)n(C[C@H](O)[C@@H]3CC[C@@H](NCc4cc5c(cn4)OCS5)CO3)c2n1 [Example 10, 3-fluoro-1-((2S)-2-hydroxy-2-{(2S,5R)-5-[(3-oxa-1-thia-5-aza-indan-6-ylmethyl)-amino]-tetrahydro-pyran-2-yl}-ethyl)-7-methoxy-1H-[1,8]naphthyridin-2-one] | 48 | ≤ 0.031 | 
COc1ccc2ncc(=O)n(C[C@H](O)[C@@H]3CC[C@@H](NCc4cc5c(cn4)OCCS5)CO3)c2n1 [Example 11, 4-((2S)-2-{(2S,5R)-5-[(2,3-dihydro-4-oxa-1-thia-6-aza-naphthalen-7-ylmethyl)-amino]-tetrahydro-pyran-2-yl}-2-hydroxy-ethyl)-6-methoxy-4H-pyrido[2,3-b]pyrazin-3-one] | 45 | ≤ 0.031 | 
COc1ccc2ncc(=O)n(C[C@H](O)[C@@H]3CC[C@@H](NCc4cc5c(nn4)OCCS5)CO3)c2n1 [Example 12, 4-((2S)-2-{(2S,5R)-5-[(6,7-dihydro-8-oxa-5-thia-1,2-diaza-naphthalen-3-ylmethyl)-amino]-tetrahydro-pyran-2-yl}-2-hydroxy-ethyl)-6-methoxy-4H-pyrido[2,3-b]pyrazin-3-one] | 7 | 0.063 (≈ 0.129 µM) | 
COc1cnc2ccc(=O)n(C[C@H](O)[C@@H]3CC[C@@H](NCc4cc5c(cn4)OCCO5)CO3)c2n1 [Example 13, 5-((2S)-2-{(2S,5R)-5-[(2,3-dihydro-[1,4]dioxino[2,3-c]pyridin-7-ylmethyl)-amino]-tetrahydro-pyran-2-yl}-2-hydroxy-ethyl)-3-methoxy-5H-pyrido[2,3-b]pyrazin-6-one] | 5 | 0.125 (≈ 0.266 µM) | 
COc1cnc2ccc(=O)n(C[C@H](O)[C@@H]3CC[C@@H](NCc4cc5c(cn4)OCCS5)CO3)c2n1 [Example 14, 5-((2S)-2-{(2S,5R)-5-[(2,3-dihydro-4-oxa-1-thia-6-aza-naphthalen-7-ylmethyl)-amino]-tetrahydro-pyran-2-yl}-2-hydroxy-ethyl)-3-methoxy-5H-pyrido[2,3-b]pyrazin-6-one] |  | ≤ 0.031 | 
COc1cnc2ccc(=O)n(C[C@H](O)[C@@H]3CC[C@@H](NCc4cc5c(nn4)OCCS5)CO3)c2n1 [Example 15, 5-((S)-2-{(2S,5R)-5-[(6,7-dihydro-8-oxa-5-thia-1,2-diaza-naphthalen-3-ylmethyl)-amino]-tetrahydro-pyran-2-yl}-2-hydroxy-ethyl)-3-methoxy-5H-pyrido[2,3-b]pyrazin-6-one] | 0 | 0.25 (≈ 0.514 µM) | 
